Data on three compounds can be found in PMC3156385 (Chemical research in toxicology, 2011).

The conditions of series [1]: rats; cited from earlier work.
Series [2] addresses T1, P450 1A1 (Homo sapiens, UniProt P04798).
T1 sequence (P04798 1-512): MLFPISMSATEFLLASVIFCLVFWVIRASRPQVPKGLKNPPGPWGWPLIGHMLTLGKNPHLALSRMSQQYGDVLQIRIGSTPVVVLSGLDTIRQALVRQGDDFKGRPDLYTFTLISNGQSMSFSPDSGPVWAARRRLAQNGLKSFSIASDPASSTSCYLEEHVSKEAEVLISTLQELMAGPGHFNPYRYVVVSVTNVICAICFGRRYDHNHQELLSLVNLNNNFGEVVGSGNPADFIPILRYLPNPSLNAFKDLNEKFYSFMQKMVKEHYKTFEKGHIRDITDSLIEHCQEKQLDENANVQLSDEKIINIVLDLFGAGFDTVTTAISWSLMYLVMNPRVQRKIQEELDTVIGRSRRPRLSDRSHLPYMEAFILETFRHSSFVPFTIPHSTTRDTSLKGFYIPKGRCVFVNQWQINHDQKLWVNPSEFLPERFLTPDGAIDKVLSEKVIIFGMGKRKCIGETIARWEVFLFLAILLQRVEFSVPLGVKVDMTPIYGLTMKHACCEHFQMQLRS
As to the kind of experiment: Spectral binding titration with purified recombinant P450 1A1. The note with it: for ΔAmax/Ks / ΔAmax: Reverse Type I binding, 1 µM P450; for ΔAmax: means ± SE.

Series [3] deals with T2, P450 2A6 (Homo sapiens, UniProt P11509).
T2 sequence (P11509 1-494): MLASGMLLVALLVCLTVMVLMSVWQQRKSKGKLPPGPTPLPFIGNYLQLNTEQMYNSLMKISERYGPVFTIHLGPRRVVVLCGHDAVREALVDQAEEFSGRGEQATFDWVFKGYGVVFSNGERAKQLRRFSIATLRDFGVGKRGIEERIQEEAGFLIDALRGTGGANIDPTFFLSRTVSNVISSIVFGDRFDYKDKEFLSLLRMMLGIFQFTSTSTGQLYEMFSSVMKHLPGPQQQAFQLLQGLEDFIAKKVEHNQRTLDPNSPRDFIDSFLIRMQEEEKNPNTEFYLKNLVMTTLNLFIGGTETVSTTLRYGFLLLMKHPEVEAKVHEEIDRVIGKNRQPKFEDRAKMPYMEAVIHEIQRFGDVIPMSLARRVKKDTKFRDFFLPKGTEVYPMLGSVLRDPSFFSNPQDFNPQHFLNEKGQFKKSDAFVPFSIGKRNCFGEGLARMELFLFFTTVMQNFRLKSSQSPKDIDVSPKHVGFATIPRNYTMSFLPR
As to the kind of experiment: Spectral binding titration with purified recombinant P450 2A6. The note with it: for ΔAmax/Ks / ΔAmax: Type I binding, 1 µM P450; for ΔAmax: means ± SE.

The target in series [4] is T2, P450 2A6. As to the kind of experiment: Inhibition of P450 2A6-dependent coumarin 7-hydroxylation. Format: biochemical.
Series [5] deals with T3, P450 1B1 (Homo sapiens, UniProt Q16678).
T3 sequence (Q16678 1-543): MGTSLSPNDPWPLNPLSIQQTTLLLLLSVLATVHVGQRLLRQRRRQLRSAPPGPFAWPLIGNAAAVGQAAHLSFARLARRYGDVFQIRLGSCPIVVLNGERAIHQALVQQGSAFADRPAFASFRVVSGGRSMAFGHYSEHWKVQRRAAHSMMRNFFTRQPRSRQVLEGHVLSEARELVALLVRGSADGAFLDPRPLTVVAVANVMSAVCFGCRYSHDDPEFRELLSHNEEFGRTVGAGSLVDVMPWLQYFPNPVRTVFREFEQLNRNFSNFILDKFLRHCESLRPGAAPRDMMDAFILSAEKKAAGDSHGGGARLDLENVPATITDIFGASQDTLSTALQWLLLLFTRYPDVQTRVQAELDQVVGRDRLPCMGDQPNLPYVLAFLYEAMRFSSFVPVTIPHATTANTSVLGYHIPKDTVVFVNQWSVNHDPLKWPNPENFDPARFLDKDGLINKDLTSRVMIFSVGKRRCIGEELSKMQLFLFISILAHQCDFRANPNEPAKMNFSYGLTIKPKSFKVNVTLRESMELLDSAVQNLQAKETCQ
As to the kind of experiment: Spectral binding titration with purified recombinant P450 1B1. The conditions noted are these: for ΔAmax/Ks / ΔAmax: Reverse Type I binding, 1 µM P450; for ΔAmax: means ± SE.

Series [6] concerns the target T4, P450 2A13 (Homo sapiens, UniProt Q16696).
T4 sequence (Q16696 1-494): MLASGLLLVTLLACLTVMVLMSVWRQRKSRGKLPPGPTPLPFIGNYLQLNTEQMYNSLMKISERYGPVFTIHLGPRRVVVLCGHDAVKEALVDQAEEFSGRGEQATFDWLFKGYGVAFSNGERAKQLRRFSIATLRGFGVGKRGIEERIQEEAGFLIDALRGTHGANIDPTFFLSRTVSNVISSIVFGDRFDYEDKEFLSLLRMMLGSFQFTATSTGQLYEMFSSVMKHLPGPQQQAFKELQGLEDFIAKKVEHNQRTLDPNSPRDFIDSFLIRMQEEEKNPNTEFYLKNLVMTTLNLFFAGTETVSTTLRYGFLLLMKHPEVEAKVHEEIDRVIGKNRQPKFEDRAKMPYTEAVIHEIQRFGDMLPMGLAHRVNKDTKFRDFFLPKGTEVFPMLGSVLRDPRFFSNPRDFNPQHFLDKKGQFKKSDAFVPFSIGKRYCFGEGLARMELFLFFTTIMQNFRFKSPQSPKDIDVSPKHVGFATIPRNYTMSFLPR
As to the kind of experiment: Inhibition of P450 2A13-dependent coumarin 7-hydroxylation. The series is classed as biochemical.

The target in series [7] is T4, P450 2A13. Put plainly: Spectral binding titration with purified recombinant P450 2A13. The conditions noted are these: for ΔAmax/Ks / ΔAmax: Type I binding, 1 µM P450; for ΔAmax: means ± SE.
In series [8] the target is T5, P450 1A2 (Homo sapiens, UniProt P05177).
T5 sequence (P05177 1-516): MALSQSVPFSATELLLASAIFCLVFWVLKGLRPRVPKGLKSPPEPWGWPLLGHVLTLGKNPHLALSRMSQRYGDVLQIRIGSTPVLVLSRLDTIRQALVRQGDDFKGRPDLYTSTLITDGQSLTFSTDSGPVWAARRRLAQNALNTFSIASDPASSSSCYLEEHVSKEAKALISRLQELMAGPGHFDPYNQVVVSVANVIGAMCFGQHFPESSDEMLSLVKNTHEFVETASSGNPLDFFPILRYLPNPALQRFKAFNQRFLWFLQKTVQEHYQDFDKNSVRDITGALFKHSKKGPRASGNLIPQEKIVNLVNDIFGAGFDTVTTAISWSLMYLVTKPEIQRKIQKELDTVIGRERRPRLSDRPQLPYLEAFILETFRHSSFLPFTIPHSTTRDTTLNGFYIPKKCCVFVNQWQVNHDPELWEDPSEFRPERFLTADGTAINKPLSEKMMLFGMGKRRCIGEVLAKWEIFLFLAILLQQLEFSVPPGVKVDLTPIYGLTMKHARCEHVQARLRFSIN
Put plainly: Spectral binding titration with purified recombinant P450 1A2. The note with it: for ΔAmax/Ks / ΔAmax: Reverse Type I binding, 1 µM P450; for ΔAmax: means ± SE.

Series [9] concerns the target T5, P450 1A2. Put plainly: Inhibition of P450 1A2-dependent EROD activity. Format: biochemical.
In series [10] the target is T1, P450 1A1. Put plainly: Inhibition of P450 1A1-dependent EROD activity. Format: biochemical.
For series [11], the target named is T3, P450 1B1. As to the kind of experiment: Inhibition of P450 1B1-dependent EROD activity. Format: biochemical.

Consider `N#C[Se]Cc1ccc(C[Se]C#N)cc1` [p-[^14C]XSC, 1,4-[^14C]phenylenebis(methylene)selenocyanate], for which, in series [1], the “cumulative percentage of radioactivity excreted in feces” value is 75% and the “cumulative percentage of radioactivity excreted in urine” value was 24%.
The term Kd denotes a measure of binding affinity in units of concentration. What is called IC50 is the concentration that gives 50% inhibition. A lower IC50 goes with inhibition by little substance. With `N#C[Se]Cc1ccccc1C[Se]C#N` [o-XSC, 1,2-phenylenebis(methylene)selenocyanate], the Kd in series [2] turned out to be 26 ± 4.6 µM; in series [3], 5.1 ± 0.45 µM; in series [5], 4.6 ± 0.75 µM; in series [7] it was 750 ± 44 nM. Besides, the ΔAmax/Ks in [2] is on record as 0.77 × 10^−3; in series [3], 7.80 × 10^−3; in [5], 3.30 × 10^−3; in [7] it was 92.00 × 10^−3; in [8], 0.38 × 10^−3. Further, the ΔAmax in series [2] is given as 20 ± 1.2 × 10^−3; in series [3] it was 40 ± 0.82 × 10^−3; in series [5] it was 15 ± 0.51 × 10^−3; in [7], 69 ± 0.49 × 10^−3; in series [8] it was 2.4 ± 0.20 × 10^−3. The IC50 in [4] was 2.7 ± 0.34 µM; in series [6], 1200 ± 130 nM; in series [9], 390 ± 42 nM; in series [10], 110 ± 21 nM; in series [11] it was 140 ± 27 nM.
For `N#C[Se]Cc1ccc(C[Se]C#N)cc1` [p-XSC, 1,4-phenylenebis(methylene)selenocyanate], the Kd was found to be 19 ± 1.6 µM in series [2]; 14 ± 1.9 µM in series [3]; 3.6 ± 0.33 µM in [5]; 1500 ± 280 nM in series [7]; 12 ± 1.2 µM in series [8]. For the same compound, the ΔAmax/Ks is reported as 0.45 × 10^−3 in [2]; 2.20 × 10^−3 in series [3]; 5.83 × 10^−3 in series [5]; 46.00 × 10^−3 in [7]; 0.81 × 10^−3 in series [8]. For the same compound, the ΔAmax in series [2] was 8.6 ± 0.24 × 10^−3; in series [3], 31 ± 1.2 × 10^−3; in [5], 21 ± 0.48 × 10^−3; in series [7], 69 ± 2.6 × 10^−3; in series [8], 9.7 ± 0.40 × 10^−3. Moreover, the half-inhibitory concentration (IC50) in series [4] came out at 6.2 ± 0.55 µM; in series [6] it was 1400 ± 210 nM; in series [9], 630 ± 59 nM; in [10] it was 260 ± 31 nM; in series [11] it was 160 ± 9 nM.
